For 88 molecules, melting point results are on record in a melting point compilation (Tetko et al.; mined from patent text by program, amines drawn as free bases though some values may be those of a salt).

`CCCn1c(CCO)nc2c(N)nc3cc(OCCCNC(=O)c4cccnc4)ccc3c21` came in with a melting point of 184 °C.

Turning to `COc1ccc(C(=O)Nc2ccccc2)cc1NS(=O)(=O)c1cccc(Cl)c1`, the melting point fell in the range of 197 to 199 °C.

Turning to `Cc1nc2cc(-c3ccccc3C#N)ccc2[nH]1`, the melting point fell in the range of 205 to 208 °C.

`N#Cc1ccc2c(c1)c(C1CCC(=O)CC1)cn2Cc1ccccc1` gave a melting point of 115 to 126 °C.

`CCN(C)c1cc(OC)c(C(=O)NC2CCN(Cc3ccccc3)C2)cc1Cl` (stereo not drawn) registered a melting point of 76 to 77 °C.

On to `O=C(Nc1ccc(F)cc1)NN1CC=CCC1`, for which the melting point is 156 to 157 °C.

Consider `Cc1cc(O)c2cccc(OCc3ccccc3)c2n1`, for which the melting point was in the range of 155 to 164 °C.

The molecule `O=C1CC(NC(=O)C2CCCN3C(=O)CCC(NC(=O)c4ccccc4)C(=O)N23)C(OC2Cc3ccccc3C2)O1` (stereo not drawn) came in with a melting point of 140 °C.

In the case of `COc1ccc(C#CCCN2CCOC2=O)cc1OC`, the melting point lay within 78 to 79 °C.

The molecule `Cc1onc(-c2ccccc2)c1-c1[nH]c2ccccc2c1C(=O)C(=O)N(C)C` returned a melting point of 258 to 260 °C.

Regarding `O=C(c1c[nH]c2cc(C#Cc3ccccc3)ccc12)C1CSC(c2cccnc2)N1` (stereo not drawn), the melting point lay within 103 to 107 °C.

Consider `N#Cc1cc(N)ccc1CN1CCC(N2CCOCC2)CC1`, for which the melting point fell in the range of 162 to 165 °C.

In turn, `COc1ccccc1CC(=N)N1C[C@@H]2C(=O)CCC(c3ccccc3)(c3ccccc3)[C@@H]2C1` yielded a melting point of 190 °C.

`CN=C(NC#N)Nc1ccc2c(c1)CCC1CC(=O)NN=C21` (stereo not drawn) registered a melting point of 289 °C.

Molecule `Cc1ccc2c(c1)c(=O)c1c(cnn1C)n2CCCl` came in with a melting point of 116 to 119 °C.

On to `O=S(=O)(OC(c1cccc(C(OS(=O)(=O)c2ccc(Cl)cc2)(C(F)(F)F)C(F)(F)F)c1)(C(F)(F)F)C(F)(F)F)c1ccc(Cl)cc1`, for which the melting point stood at 125 °C.

As for `COc1ccc2nc(Cl)c(NN)nc2c1`, the melting point was less than 250 °C.

In the case of `Cc1nnc(NC(=O)C2=C(O)c3ccc4ccccc4c3S(=O)(=O)N2C)s1`, the melting point fell in the range of 252 to 255 °C.

The molecule `CC(=O)Nc1c(N)cc(Br)cc1OCc1ccccc1` registered a melting point of 185 °C.

`OCCCOc1cccc2cccnc12` came in with a melting point of 126 to 127 °C.

Consider `CCc1[nH]c(C)c(C(C)=O)c1C`, for which the melting point fell in the range of 153 to 160 °C.

Molecule `Cc1ccc(C(=O)Cc2nnnn2C)c(N)c1` showed a melting point of 155 to 156 °C.

As to `CCCCCCCCCCCCCCCCCC#CC(C(=O)OCC)C(=O)OCC`, the melting point was 33 to 34 °C.

`O=S(=O)(c1cc(-c2ccncc2)sc1-c1ccncc1)N1CCCC1` gave a melting point of 193 to 195 °C.

On to `Cc1nc2c3c(c(C(=O)N(C)CCO)cc2n1C)CCC1(Cc2ccccc2C1)N3`, for which the melting point lay within 194 to 195 °C.

With `O=C(NCc1cccnc1)c1ccc2n1Cc1ccccc1N(C(=O)c1ccc(-c3ccccc3Cc3nnn[nH]3)cc1)C2`, the melting point lay within 164 to 167 °C.

Molecule `COC(=O)c1c(C)nc(-c2ccccc2)nc1-c1cccc(OC(F)F)c1` registered a melting point of 62 to 63 °C.

Regarding `OC(c1ccc(Oc2ccc(Cl)cc2Cl)cc1)C(F)n1cncn1` (stereo not drawn), the melting point lay in the range of 107 to 108 °C.

In turn, `COc1cccc(-c2nc3ccc(OC)cc3s2)c1` yielded a melting point of 155 to 157 °C.

`COc1c(Nc2ncc(Cl)c(Nc3ccccc3S(=O)(=O)N(C)C)n2)ccc2c1CC(N1CCOCC1)CCC2` (stereo not drawn): the melting point was 92 to 104 °C.

Regarding `CC1(C)Oc2ccc(OCc3ccccc3)cc2C2OC21` (stereo not drawn), the melting point is 70 to 72 °C.

With `CC(C)c1nc(-c2cccc3c2OCO3)cc(-c2ccc(F)cc2)c1CO`, the melting point was in the range of 114 to 115 °C.

The molecule `CC(CC(C#N)(c1ccccc1)c1ccccn1)N1CCN(C)CC1` (stereo not drawn) returned a melting point of 89 to 90 °C.

The molecule `CCCc1cc(O)nc(NCC)n1` yielded a melting point of 108 to 110 °C.

For `Cc1c(NC(=O)c2ccc(-c3ccc(C(F)(F)F)cc3)cc2F)ccc2cc(CN3CCCC3)cnc12`, the melting point lay in the range of 202 to 203 °C.

As for `Cc1nn(C)c(=O)c(-n2nc(-c3ccc(C(F)(F)F)cc3)cc2C)c1O`, the melting point lay within 191 to 194 °C.

`Cc1cc(NS(=O)(=O)c2cccs2)c2[nH]c(C(=O)NCCSC(c3ccccc3)(c3ccccc3)c3ccccc3)cc2c1` gave a melting point of 214 to 215 °C.

For the molecule `Cc1cc(-c2nncc3c(Br)c(OCc4ncnn4C)nn23)no1`, the melting point lay within 239 to 241 °C.

`O=C(O)C1=CCN(c2ncccc2F)CC1` had a melting point of 119 to 120 °C.

`COc1nc(C(F)(F)F)cc(=O)n1-c1ccc(Cl)c(OC(C)C)c1`: the melting point lay within 55 to 58 °C.

As to `CCc1ccc(Nc2ncc(Cc3ccc(OC)nc3)c3ncccc23)cc1Br`, the melting point was 142 to 146 °C.

As to `O[C@H](CCc1cccnc1)COc1ccc(-c2ccc(Cl)cc2)cc1`, the melting point was 117 to 118 °C.

In turn, `CN(C)CCOc1ccc(C(=O)c2c(-c3ccc(O)cc3)sc3cc(O)ccc23)cc1` gave a melting point of 141 to 144 °C.

Molecule `COc1cc(CCc2cnc(N)nc2N)cc(OC)c1OC` showed a melting point of 155 to 157 °C.

The molecule `COc1cccc2c1CCCC2=NNc1nc(-c2cccc([N+](=O)[O-])c2)cs1` displayed a melting point of 185 °C.

In turn, `CC(C)Sc1c(C(N)=O)sc2ccccc12` had a melting point of 183 to 185 °C.

As to `Cc1cccc(C(=O)Nc2ccc(N3CCN(Cc4ccc[nH]4)CC3)nc2)c1-c1ccc(C(C)C)cc1`, the melting point was 130 °C.

Molecule `CN1CCC(C2c3ccccc3C=Cc3ccccc32)CC1` had a melting point of 127 °C.

Consider `Clc1ccc2c(C3CCNCC3)c[nH]c2c1Cl`, for which the melting point lay in the range of 254 to 257 °C.

Molecule `CC(C)(CNC(=O)C(C)(C)CCC(=O)O)SN=O` showed a melting point of 100 to 101 °C.

`CCOC(=O)NN=Cc1cn(-c2ccccc2)nc1-c1ccc([N+](=O)[O-])o1` registered a melting point of 200 to 201 °C.

For the molecule `CCC(CC)Nc1nc(C)nc(N2CCc3cc(Cl)cc(Cl)c32)c1C#N`, the melting point lay in the range of 163 to 165 °C.

Take `CC(C)(C)OC(=O)NCCCn1c2c(c3ccc(NC(=O)CC(=O)O)cc3c1=O)C(=O)c1ccccc1-2`: the melting point lay within 211 to 212 °C.

For the molecule `O=C(c1ccccc1)c1cc(-c2ccncc2)c(N2CCOCC2)s1`, the melting point was determined as 122 °C.

`CN(C)c1ccc(S(=O)c2ccccc2)cc1[N+](=O)[O-]` (stereo not drawn) came in with a melting point of 125 to 126 °C.

Take `COC(=O)c1c(C)nc2c(c1N(C)C)c1ccccc1n2C`: the melting point lay in the range of 106 to 108 °C.

With `COC(=O)c1c(S(C)(=O)=O)ccc(C(=O)O)c1Cl`, the melting point was in the range of 160 to 162 °C.

As to `CC(C)(C)c1cc(Nc2ccc(C=CC(=O)O)cc2)cc(C(C)(C)C)c1O`, the melting point lay in the range of 199 to 200 °C.

In turn, `O=C(Oc1cccc(F)c1)c1ccccc1F` displayed a melting point of 37.5 to 38.5 °C.

Turning to `CCOC(=O)C1=C(C)NC2=C(C(=O)OC2)C1c1ccccc1OC` (stereo not drawn), the melting point lay within 219 to 220 °C.

`CSCC(C)(C)NC(=O)c1c(I)cccc1Oc1ncc(C(F)(F)F)cc1Cl` yielded a melting point of 83 to 85 °C.

In the case of `CC1(C)Cc2cc(O)c3c(c2C(c2ccccc2)=N1)CC(C)(C)O3`, the melting point lay in the range of 208 to 210 °C.

In turn, `Cc1ccccc1NC(=O)Nc1ccc(CC(=O)O)cc1` had a melting point of 205 to 206 °C.

`CCOC(=O)C(=O)c1c(C(=O)OCC)n(C)c2cc(Cl)ccc12` returned a melting point of 94 to 95 °C.

`CC(C)N1CCN(c2cccc(N)c2)C(=O)C1` registered a melting point of 114 to 115 °C.

As for `Cc1ccc(S(=O)(=O)NC(=O)Nc2c(Br)cc(Br)cc2Br)cc1`, the melting point was found to be 230 °C.

Take `O=C1CCC(c2ccccc2)(c2ccccc2)[C@@H]2CN(C(=O)Cc3ccsc3)C[C@H]12` (racemic): the melting point came to 224 °C.

In the case of `O=C(O)CCCCCNS(=O)(=O)c1ccccc1`, the melting point was in the range of 113 to 115 °C.

`O=C(/C=C/c1ccc(C(F)(F)F)cc1-c1cccnc1)Nc1cnc2ccccc2c1` had a melting point of 196 to 199 °C.

As to `COc1ccc2c(C(=O)c3ccc(OC4CCCCC4N4CCOCC4)cc3)c(-c3ccc(OCCN4CCCC4)cc3)sc2c1` (stereo not drawn), the melting point fell in the range of 50 to 57 °C.

With `COc1ccc(NC(=O)NCc2cccc3c2C(=O)N(C2CCC(=O)NC2=O)C3=O)cc1` (stereo not drawn), the melting point was 205 to 207 °C.

Turning to `N#CC1CN1C(=O)c1ccc2c(c1)OCO2` (stereo not drawn), the melting point lay in the range of 95 to 97 °C.

`CCCCc1nc2c(C)c(Cl)cc(C(=O)O)c2n1Cc1ccc(C(=O)O)cc1` had a melting point of 293 to 294 °C.

For `NCC1Cc2cc(F)cc(-c3cccnc3)c2O1` (stereo not drawn), the melting point was 88 to 90 °C.

The molecule `Cc1nc(-n2cnn(CC3CC3)c2=O)sc1C(=O)NCc1cccnc1` showed a melting point of 116 to 117 °C.

For the molecule `O=S(=O)(F)CCCCCCCc1ccc(O)cc1`, the melting point was in the range of 47 to 51 °C.

With `CCCCc1ncc(CO)n1Cc1ccc(OCc2ccccc2C(=O)O)cc1`, the melting point was in the range of 115 to 116 °C.

As for `CC(=O)Oc1ccc2c3c1OC1C(OS(=O)(=O)C(F)(F)F)CCC4(O)C(C2)N(C)CCC314` (stereo not drawn), the melting point lay in the range of 125 to 126 °C.

Take `O=C(O)C(CCO)N1CCCC1=O` (stereo not drawn): the melting point is 123 to 124 °C.

Consider `COc1ccc(CCOc2ccnc(-c3cccc(C(=O)O)c3)n2)cc1OC`, for which the melting point fell in the range of 193 to 194 °C.

Consider `CC(C)(O)Cn1c(CO)nc2c(N)nc3cc(-c4cccc(C(=O)N5CCOCC5)c4)cnc3c21`, for which the melting point lay in the range of 153 to 155 °C.

Molecule `CCNc1cccnc1N1CCN(Cc2cc(C)c(O)c(C)c2)CC1` yielded a melting point of 203 to 206 °C.

In turn, `Cc1cn2c(=O)c(CCN3CCC(C(=O)c4ccc(F)cc4)CC3)cnc2n1Cc1ccccc1` gave a melting point of 157 °C.

On to `CN(C)c1cccc(-c2ccc3nnn(Cc4ccc5ncccc5c4)c3n2)c1`, for which the melting point was in the range of 124 to 126 °C.

Take `CCCCOc1cc(/C=C/C(=O)NS(=O)(=O)CCC(C)C)n(Cc2ccc(C(F)(F)F)cc2Cl)n1`: the melting point fell in the range of 89.5 to 90.5 °C.

Regarding `Cc1noc(NS(=O)(=O)c2ccsc2C(=O)c2ccc3c(c2)OCO3)c1Br`, the melting point was in the range of 47 to 49 °C.

With `COc1cccn2c(=O)c3c(nc12)C(=Cc1ccccc1)CC3`, the melting point was in the range of 212 to 214 °C.

Turning to `CC1CCc2c(F)c(F)cc3c(=O)[nH]c(=O)n1c23` (stereo not drawn), the melting point was 212 to 214 °C.

A word on the melting point: it is the temperature, or range, at which the solid turns liquid.
